Results published in US20250065147A1, “SYSTEMS AND METHODS FOR PHOTODYNAMIC THERAPY” (Virginia Commonwealth University, priority 2023, published 2025).
Values joined by “and” are separate entries in the source; they are usually repeats but may differ in a detail not shown here. Identical values can stand only once. “Also recorded” adds a separate entry of the source.

Experiments:
HCC (human liver cancer) = experiment: PDT with ICG (809 nm laser) in PDOX mouse model; assay type: in vivo
From the text: (§1) We set up a study of PDT with ICG using patient derived orthotopic xenograft (PDOX) mouse model (FIG. 7). In the PDOX model, the mouse liver has human liver cancer. […] We then found the optimal laser wavelength that liver-ICG can absorb with maximum intensity which was 809 nm (FIG. 2). We set up the laser to treat HCC with PDT with the setting numbers in Table 1.

[1] = ICG distribution after administration in patient derived orthotopic xenograft (PDOX) mouse model; assay type: in vivo
From the text: as §1

[2] = Optimal laser wavelength that liver-ICG can absorb with maximum intensity; assay type: physicochemical; conditions: FIG. 2
From the text: as §1

With `CC1(C)C(/C=C/C=C/C=C/C=C2\N(CCCCS(=O)(=O)O)c3ccc4ccccc4c3C2(C)C)=[N+](CCCCS(=O)(=O)[O-])c2ccc3ccccc3c21` [ICG, indocyanine green] the “finding on MRI after treatment” value (HCC (human liver cancer); 2 weeks after treatment, PDOX mouse) was “tumor necrosis”, the “pathologic evaluation of HCC” value (HCC (human liver cancer); specimen after PDT with ICG) was “apoptosis of HCC” and the ICG localisation ([1]; at 0 hr after ICG administration) was “present in the whole body”. The ICG localisation ([1]; at 6 hrs after ICG administration) was “present in the liver”, the ICG localisation ([1]; at 24 hrs after ICG administration) was “confined to a liver tumor; also recorded: confined in only HCC inside the liver” and the “optimal laser wavelength that liver-ICG can absorb with maximum intensity” value [2] was 805-815 nm and 809 nm.
